Test results as given in patent US6521656B1, “Remedies for male sterility” (Fujisawa Pharmaceutical Co., Ltd., priority 1998, dated 2003).

System: human sperm
Assay: Test for evaluation of the promoting effect on the induction of sperm acrosomal reaction (FITC-concanavalin A fluorescence staining)
Type: cell-based
Conditions: for acrosomal reaction induction rate (%): incubation time 3; for induction of acrosomal reaction: human sperm, summary in words
Procedure: Percoll for sperm washing was isotonized and adjusted to 90% with 20 mM Hepes buffered Hanks solution (pH 7.4; supplemented with 1.0 mg/ml BSA). The ejaculated human seminal fluid was allowed to liquefy at room temperature, diluted 2-fold with Hanks solution, and layered on 6.0 ml Percoll. In the Percoll layer, a glass capillary had been inserted in advance. The system was centrifuged at 1000×g for 30 minutes to precipitate motile sperm. The precipitated sperm was aspirated through the capillary and recovered. The sperm was resuspended in Hanks solution at a final concentration of about 50×10^6/ml and cultured at 37° C.
The human sperm acrosomal reaction was monitored by a fluorescence staining technique using FITC-concanavalin A.
As the acrosomal cap splits off on acrosomal reaction, the membrane protein rich in the high-mannose sugar chain on the acrosomal tunica intima becomes exposed. Therefore, the sperm showing a yellow fluorescence in the anterior half of the head was regarded as acrosomal reaction-induced sperm.
Compound A was added to the sperm suspension at a final concentration of 10^−6 or 10^−7 M. Observation was made in the group supplemented with 1 I.U./ml of adenosine deaminase and the non-enzyme-addition group.
Compounds B and C were respectively added to the sperm suspension at a final concentration of 10^−7 M. Observation was made in the groups supplemented with 1 I.U./ml of adenosine deaminase.
Each figure denotes the acrosomal reaction induction rate (%) (the mean±S.E. of 3 observations in Table 1; the mean±S.E. of 5 observations in Tables 2 and 3). In Table 1, the figure in the top row represents the result obtained in the absence of adenosine deaminase and the figures in the bottom row represent the results in the presence of adenosine deaminase.

Row | Compound | acrosomal reaction induction rate (%) (Compound B 10^−7 M, supplemented with 1 I.U./ml adenosine deaminase, mean±S.E. of 5 observations) | induction of acrosomal reaction | acrosomal reaction induction rate (%) (Compound A 10^−6 M, absence of adenosine deaminase, mean±S.E. of 3 observations) | acrosomal reaction induction rate (%) (Compound A 10^−6 M, presence of adenosine deaminase 1 I.U./ml, mean±S.E. of 3 observations) | acrosomal reaction induction rate (%) (Compound A 10^−7 M, absence of adenosine deaminase, mean±S.E. of 3 observations) | acrosomal reaction induction rate (%) (Compound A 10^−7 M, presence of adenosine deaminase 1 I.U./ml, mean±S.E. of 3 observations) | acrosomal reaction induction rate (%) (Compound C 10^−7 M, supplemented with 1 I.U./ml adenosine deaminase, mean±S.E. of 5 observations)
1 | O=C(O)C[C@H]1CCCCN1C(=O)C=Cc1c(-c2ccccc2)nn2ccccc12 (single isomer, unassigned) [Compound B] | 41.26 ± 2.18 | promoted | – | – | – | – | –
2 | O=C(O)CCCn1nc(-c2c(-c3ccccc3)nn3ccccc23)ccc1=O [Compound A, 3-[2-(3-Carboxypropyl)-3-oxo-2,3-dihydropyridazin-6-yl]-2-phenylpyrazolo[1,5-a]pyridine] | – | promoted | 43.7 ± 2.77 | 63.6 ± 1.84 | 47.1 ± 2.37 | 64.1 ± 1.73 | –
3 | O=C(O)CC1=C(n2nc(-c3c(-c4ccccc4)nn4ccccc34)ccc2=O)CCCC1 [Compound C, 3-[2-(2-Carboxymethyl-1-cyclohexenyl)-3-oxo-2,3-dihydropyridazin-6-yl]-2-phenylpyrazolo[1,5-a]pyridine] | – | promoted | – | – | – | – | 48.86 ± 2.57
